# Reference: ChEMBL document CHEMBL4823249, “Discovery of a Pyrimidinedione Derivative as a Potent and Orally Bioavailable Axl Inhibitor” (J Med Chem, 2021)
# pIC50: −log10 of the molar value. Active and inactive are the calls of the source. The rule behind the calls is not given here.
# Legend:
# [1] = Tmax in ICR mouse at 3 mg/kg, po measured upto 24 hrs by LC-MS analysis; format: ADME, organism-based; conditions: in vivo
# [2] = biological target: Dual specificity protein kinase CLK1 (Homo sapiens, UniProt P49759); assay: Inhibition of human recombinant CLK1 (130 to end residues) using ERMRPRKRQGSVR as substrate incubated for 40 mins in presence of [gamma-33ATP] by radiometric scintillation counting analysis
# BaF3 [3] = assay: Antiproliferative activity against mouse BaF3/TEL-AXL cells incubated for 72 hrs by SRB or CCK8 assay; conditions: BaF3, 72 h
# [4] = biological target: Cyclin-dependent kinase 1/cyclin B1 (Homo sapiens, UniProt P06493); assay: Inhibition of recombinant full length human CDK1/CyclinB using Histone H1 as substrate incubated for 40 mins in presence of [gamma-33ATP] by scintillation counting based radiometry assay; format: protein-complex assay
# NCI-H1299 [5] = assay: Inhibition of Gas6-stimulated cell migration in human NCI-H1299 cells at […] after 24 hrs by crystal violet staining based microscopic analysis; format: functional; conditions: dose lower 5.0 µM
# SNU-449 = assay: Antiproliferative activity against human SNU-449 cells at 5 to 125 uM incubated for 72 hrs by SRB or CCK8 assay; format: functional, cell-based; conditions: dose 5-125 µM
# NCI-H1299 [6] = assay: Antiproliferative activity against human NCI-H1299 cells incubated for 72 hrs by SRB or CCK8 assay; format: functional, cell-based; conditions: NCI-H1299, 72 h
# CDK12/Cyclin K = CDK12/Cyclin K (Homo sapiens, UniProt Q9NYV4); assay: Inhibition of recombinant full length human CDK12/CyclinK using RSRSRSRSRSRSR as substrate incubated for 40 mins in presence of [gamma-33ATP] by scintillation counting based radiometry assay; format: protein-complex assay
# [7] = Clearance in ICR mouse at 1 mg/kg, iv measured upto 24 hrs by LC-MS analysis; format: ADME, organism-based; conditions: in vivo
# BaF3 [8] = assay: Antitumor activity against mouse BaF3/TEL-AXL cells xenografted in BALB/c nude mouse assessed as tumor growth inhibition at 1 mg/kg, po administered once daily for 14 days by caliper method; format: functional; conditions: 336 h, time 14 day, read-out: TGI
# [9] = Toxicity in BALB/c nude mouse assessed as reduction in body weight at 100 mg/kg, po administered once daily for 14 days; format: organism-based; conditions: in vivo, 336 h, time 14 day
# [10] = biological target: Proto-oncogene tyrosine-protein kinase receptor Ret (Homo sapiens, UniProt P07949); assay: Inhibition of recombinant human Ret (658 to end residues) using KKKSPGEYVNIEFG as substrate incubated for 40 mins in presence of [gamma33P]ATP by scintillation counting based radiometry assay
# HCC78 = assay: Antiproliferative activity against human HCC78 cells incubated for 72 hrs by SRB or CCK8 assay; format: functional, cell-based; conditions: HCC78, 72 h
# [11] = AUC(0 to t) in ICR mouse at 3 mg/kg, po measured upto 24 hrs by LC-MS analysis; format: ADME, organism-based; set-up: route oral, dose 3 mg/kg, time <=24; conditions: in vivo
# [12] = biological target: T1, Hepatocyte growth factor receptor (Homo sapiens, UniProt P08581); assay: Inhibition of MET signaling in human MKN45 cells assessed as reduction in phosphorylation of AKT after 2 hrs by Western blotting analysis; format: cell-based; conditions: MKN-45, dose 10-100 nM
# [13] = biological target: Tyrosine-protein kinase receptor TYRO3 (Homo sapiens, UniProt Q06418); assay: Inhibition of recombinant human RSE (451 to end residues) using KVEKIGEGTYGVVYK as substrate incubated for 40 mins in presence of [gamma33P]ATP by scintillation counting based radiometry assay
# [14] = biological target: Receptor tyrosine-protein kinase erbB-4 (Homo sapiens, UniProt Q15303); assay: Inhibition of recombinant human ERBB4 (706 to 991 residues) using poly(Glu, Tyr) 4:1 as substrate incubated for 40 mins in presence of [gamma-33ATP] by scintillation counting based radiometry assay
# [15] = biological target: T1, Hepatocyte growth factor receptor; assay: Inhibition of MET signaling in human EBC1 cells assessed as reduction in phosphorylation of AKT after 2 hrs by Western blotting analysis; format: cell-based; conditions: EBC-1, dose 10-100 nM
# EBC-1 = assay: Antiproliferative activity against human EBC-1 cells incubated for 72 hrs by SRB or CCK8 assay; format: functional, cell-based; conditions: EBC-1, 72 h
# [16] = biological target: Tyrosine-protein kinase JAK3 (Homo sapiens, UniProt P52333); assay: Inhibition of recombinant human JAK3 (781 to end residues) using GGEEEEYFELVKKKK as substrate measured after 40 mins in presence of [gamm33P]ATP by scintillation counting method
# [17] = biological target: Tyrosine-protein kinase BTK (Homo sapiens, UniProt Q06187); assay: Inhibition of full length recombinant human BTK using KVEKIGEGTYGVVYK as substrate incubated for 40 mins in presence of [gamma-33P]-ATP by scintillation counting based radiometry assay
# MKN-45 = assay: Antiproliferative activity against human MKN-45 cells incubated for 72 hrs by SRB or CCK8 assay; format: functional, cell-based; conditions: MKN-45, 72 h
# Ephrin type-A receptor 2 = Ephrin type-A receptor 2 (Homo sapiens, UniProt P29317); assay: Inhibition of recombinant human EphA2 (596 to 900 residues) using poly(Glu, Tyr) 4:1 as substrate incubated for 40 mins in presence of [gamma-33ATP] by scintillation counting based radiometry assay
# [18] = biological target: T1, Hepatocyte growth factor receptor; assay: Inhibition of recombinant human MET (974 to end residues) using KKKGQEEEYVFIE as substrate incubated for 40 mins in presence of [gamma-33ATP by scintillation counting based radiometry assay
# MM1.S = assay: Antiproliferative activity against human MM1.S cells incubated for 72 hrs by SRB or CCK8 assay; format: functional, cell-based
# [19] = Half life in ICR mouse at 3 mg/kg, po measured upto 24 hrs by LC-MS analysis; format: ADME, organism-based; conditions: in vivo
# [20] = biological target: Ribosomal protein S6 kinase alpha-1 (Homo sapiens, UniProt Q15418); assay: Inhibition of recombinant full length human Rsk1 using KKKNRTLSVA as substrate incubated for 40 mins in presence of [gamma33P]ATP by scintillation counting based radiometry assay
# [21] = biological target: T1, Hepatocyte growth factor receptor; assay: Inhibition of MET signaling in human MKN45 cells assessed as reduction in phosphorylation of MET after 2 hrs by Western blotting analysis; format: cell-based; conditions: MKN-45, dose 10-100 nM
# U-87 MG = assay: Antitumor activity against human U-87MG cells xenografted in BALB/c nude mouse assessed as tumor growth inhibition at 100 mg/kg, po administered once daily for 14 days by caliper method; format: functional, U-87MG ATCC; conditions: 336 h, time 14 day, read-out: TGI
# [22] = Half life in Sprague-Dawley rat at 3 mg/kg, po measured upto 24 hrs by LC-MS analysis; format: ADME, organism-based; conditions: in vivo
# [23] = biological target: Mitogen-activated protein kinase kinase kinase kinase 2 (Homo sapiens, UniProt Q12851); assay: Inhibition of recombinant human GCK (1 to 473 residues) using myelin basic protein as substrate incubated for 40 mins in presence of [gamma-33ATP] by scintillation counting based radiometry assay
# HCC827 = assay: Antiproliferative activity against human HCC827 cells incubated for 72 hrs by SRB or CCK8 assay; format: functional, cell-based; conditions: HCC827, 72 h
# NCI-H1975 = assay: Antiproliferative activity against human NCI-H1975 cells incubated for 72 hrs by SRB or CCK8 assay; format: functional, cell-based; conditions: NCI-H1975, 72 h
# T1 sequence (P08581 whole entry): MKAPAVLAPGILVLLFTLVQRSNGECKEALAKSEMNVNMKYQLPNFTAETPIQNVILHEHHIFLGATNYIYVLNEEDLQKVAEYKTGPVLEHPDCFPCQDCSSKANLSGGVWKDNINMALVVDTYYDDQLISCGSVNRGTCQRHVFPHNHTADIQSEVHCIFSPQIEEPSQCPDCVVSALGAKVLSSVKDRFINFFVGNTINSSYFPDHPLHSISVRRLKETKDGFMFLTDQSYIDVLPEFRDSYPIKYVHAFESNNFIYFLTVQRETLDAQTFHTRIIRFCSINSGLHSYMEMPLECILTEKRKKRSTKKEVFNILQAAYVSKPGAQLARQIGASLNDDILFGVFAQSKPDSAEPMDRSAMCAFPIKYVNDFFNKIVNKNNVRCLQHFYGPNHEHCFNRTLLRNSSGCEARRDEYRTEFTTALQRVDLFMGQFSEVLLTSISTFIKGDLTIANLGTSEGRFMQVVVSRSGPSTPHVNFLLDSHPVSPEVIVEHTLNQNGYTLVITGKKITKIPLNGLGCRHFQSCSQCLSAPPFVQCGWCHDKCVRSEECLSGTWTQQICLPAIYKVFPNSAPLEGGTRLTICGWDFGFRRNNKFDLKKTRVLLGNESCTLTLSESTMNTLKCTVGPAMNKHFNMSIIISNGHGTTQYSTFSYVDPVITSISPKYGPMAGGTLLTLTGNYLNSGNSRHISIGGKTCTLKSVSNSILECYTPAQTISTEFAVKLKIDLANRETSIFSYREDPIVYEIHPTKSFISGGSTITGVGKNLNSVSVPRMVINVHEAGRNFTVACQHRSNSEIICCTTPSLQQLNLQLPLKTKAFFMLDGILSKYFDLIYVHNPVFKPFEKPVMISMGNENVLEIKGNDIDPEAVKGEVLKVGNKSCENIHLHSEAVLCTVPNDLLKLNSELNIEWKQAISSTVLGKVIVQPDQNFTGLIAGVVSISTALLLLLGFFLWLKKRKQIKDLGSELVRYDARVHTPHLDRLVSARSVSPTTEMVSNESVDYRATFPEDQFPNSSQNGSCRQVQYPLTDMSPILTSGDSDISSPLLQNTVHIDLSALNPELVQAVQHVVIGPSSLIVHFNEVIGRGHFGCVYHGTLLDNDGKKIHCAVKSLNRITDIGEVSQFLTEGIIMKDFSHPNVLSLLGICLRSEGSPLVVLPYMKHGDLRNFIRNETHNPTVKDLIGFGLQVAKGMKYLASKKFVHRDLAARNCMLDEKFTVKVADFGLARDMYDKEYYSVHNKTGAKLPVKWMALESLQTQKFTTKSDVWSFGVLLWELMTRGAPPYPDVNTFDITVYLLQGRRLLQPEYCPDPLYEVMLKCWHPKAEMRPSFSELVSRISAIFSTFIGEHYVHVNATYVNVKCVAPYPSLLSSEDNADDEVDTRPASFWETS
# Chain of Ephrin type-A receptor 2 (P29317 whole entry, the tested form may be a part): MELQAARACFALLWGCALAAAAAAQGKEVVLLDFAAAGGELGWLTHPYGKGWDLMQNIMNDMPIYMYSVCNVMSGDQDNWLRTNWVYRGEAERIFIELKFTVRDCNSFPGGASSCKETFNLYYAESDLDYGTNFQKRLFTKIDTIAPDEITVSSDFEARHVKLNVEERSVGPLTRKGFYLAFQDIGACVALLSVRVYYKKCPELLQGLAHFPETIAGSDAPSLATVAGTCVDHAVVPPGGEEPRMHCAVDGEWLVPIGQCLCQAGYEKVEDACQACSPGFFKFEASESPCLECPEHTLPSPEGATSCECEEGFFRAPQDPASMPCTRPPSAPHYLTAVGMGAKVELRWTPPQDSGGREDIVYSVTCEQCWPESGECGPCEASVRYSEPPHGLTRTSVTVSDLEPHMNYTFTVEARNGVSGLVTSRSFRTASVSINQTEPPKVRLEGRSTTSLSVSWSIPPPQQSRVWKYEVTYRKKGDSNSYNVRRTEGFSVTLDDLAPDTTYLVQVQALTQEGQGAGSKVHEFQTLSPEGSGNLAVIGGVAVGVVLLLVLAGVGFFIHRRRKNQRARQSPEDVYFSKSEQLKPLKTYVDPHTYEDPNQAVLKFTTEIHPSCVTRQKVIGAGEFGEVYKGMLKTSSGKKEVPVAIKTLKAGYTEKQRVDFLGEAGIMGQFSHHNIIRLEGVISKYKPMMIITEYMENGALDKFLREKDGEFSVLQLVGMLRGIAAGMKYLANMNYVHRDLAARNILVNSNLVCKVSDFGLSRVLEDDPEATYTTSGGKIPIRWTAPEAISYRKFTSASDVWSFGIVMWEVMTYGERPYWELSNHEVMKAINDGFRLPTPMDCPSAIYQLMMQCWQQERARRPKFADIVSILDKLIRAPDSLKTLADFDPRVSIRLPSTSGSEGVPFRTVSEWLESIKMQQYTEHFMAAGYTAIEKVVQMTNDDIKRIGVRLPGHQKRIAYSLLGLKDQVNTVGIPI
# Chain of Tyrosine-protein kinase receptor TYRO3 (Q06418 whole entry, the tested form may be a part): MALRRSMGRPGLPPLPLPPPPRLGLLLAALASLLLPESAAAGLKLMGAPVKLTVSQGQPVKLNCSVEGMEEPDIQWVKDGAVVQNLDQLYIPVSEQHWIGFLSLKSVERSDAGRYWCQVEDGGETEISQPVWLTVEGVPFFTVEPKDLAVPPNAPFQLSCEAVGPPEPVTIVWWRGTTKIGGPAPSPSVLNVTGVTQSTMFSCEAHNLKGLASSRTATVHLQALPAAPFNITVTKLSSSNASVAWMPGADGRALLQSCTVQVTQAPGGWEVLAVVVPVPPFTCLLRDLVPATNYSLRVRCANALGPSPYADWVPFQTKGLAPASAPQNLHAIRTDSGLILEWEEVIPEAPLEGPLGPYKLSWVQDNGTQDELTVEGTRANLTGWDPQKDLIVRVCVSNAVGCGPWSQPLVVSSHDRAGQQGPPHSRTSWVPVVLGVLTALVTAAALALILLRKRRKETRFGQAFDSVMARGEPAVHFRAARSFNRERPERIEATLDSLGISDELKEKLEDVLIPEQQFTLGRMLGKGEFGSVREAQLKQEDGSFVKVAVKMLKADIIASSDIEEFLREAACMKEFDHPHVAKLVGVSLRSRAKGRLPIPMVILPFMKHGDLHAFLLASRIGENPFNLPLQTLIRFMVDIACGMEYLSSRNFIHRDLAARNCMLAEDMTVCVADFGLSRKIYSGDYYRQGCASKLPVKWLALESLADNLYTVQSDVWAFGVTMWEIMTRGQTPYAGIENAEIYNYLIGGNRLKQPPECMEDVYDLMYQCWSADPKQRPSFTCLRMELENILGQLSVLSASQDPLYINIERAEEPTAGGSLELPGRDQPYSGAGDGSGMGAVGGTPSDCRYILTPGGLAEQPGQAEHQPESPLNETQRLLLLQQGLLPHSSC
# Chain of Mitogen-activated protein kinase kinase kinase kinase 2 (Q12851 whole entry, the tested form may be a part): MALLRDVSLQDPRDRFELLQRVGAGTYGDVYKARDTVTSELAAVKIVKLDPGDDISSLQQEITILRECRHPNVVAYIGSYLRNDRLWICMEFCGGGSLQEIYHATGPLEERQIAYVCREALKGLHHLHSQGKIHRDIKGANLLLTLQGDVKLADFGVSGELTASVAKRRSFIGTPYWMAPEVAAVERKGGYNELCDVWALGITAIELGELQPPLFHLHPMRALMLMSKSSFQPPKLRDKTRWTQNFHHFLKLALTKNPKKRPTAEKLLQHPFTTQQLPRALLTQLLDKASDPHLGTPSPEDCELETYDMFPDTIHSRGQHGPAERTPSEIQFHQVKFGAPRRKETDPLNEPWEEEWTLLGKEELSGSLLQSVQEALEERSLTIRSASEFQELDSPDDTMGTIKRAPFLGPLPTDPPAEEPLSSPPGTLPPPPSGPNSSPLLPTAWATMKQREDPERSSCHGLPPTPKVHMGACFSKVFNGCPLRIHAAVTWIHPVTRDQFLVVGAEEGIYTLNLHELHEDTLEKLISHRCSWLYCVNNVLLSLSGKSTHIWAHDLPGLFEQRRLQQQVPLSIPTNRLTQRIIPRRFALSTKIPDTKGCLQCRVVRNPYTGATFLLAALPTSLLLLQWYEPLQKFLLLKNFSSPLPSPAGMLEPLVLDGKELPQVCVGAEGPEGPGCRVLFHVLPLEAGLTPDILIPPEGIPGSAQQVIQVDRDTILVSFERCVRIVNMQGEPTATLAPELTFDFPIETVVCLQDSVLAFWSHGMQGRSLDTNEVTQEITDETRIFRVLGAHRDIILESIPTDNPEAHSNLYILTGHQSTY
# Chain of Cyclin-dependent kinase 1/cyclin B1 (P06493 whole entry): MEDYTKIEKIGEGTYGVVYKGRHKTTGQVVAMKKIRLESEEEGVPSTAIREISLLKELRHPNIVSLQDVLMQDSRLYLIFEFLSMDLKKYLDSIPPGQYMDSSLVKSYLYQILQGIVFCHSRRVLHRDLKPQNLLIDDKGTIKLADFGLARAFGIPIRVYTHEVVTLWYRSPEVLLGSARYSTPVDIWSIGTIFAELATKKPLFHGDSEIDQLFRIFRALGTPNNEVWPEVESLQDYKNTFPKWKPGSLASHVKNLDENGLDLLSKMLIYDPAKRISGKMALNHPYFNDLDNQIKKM
# Chain of Cyclin-dependent kinase 1/cyclin B1 (P14635 whole entry, further chain): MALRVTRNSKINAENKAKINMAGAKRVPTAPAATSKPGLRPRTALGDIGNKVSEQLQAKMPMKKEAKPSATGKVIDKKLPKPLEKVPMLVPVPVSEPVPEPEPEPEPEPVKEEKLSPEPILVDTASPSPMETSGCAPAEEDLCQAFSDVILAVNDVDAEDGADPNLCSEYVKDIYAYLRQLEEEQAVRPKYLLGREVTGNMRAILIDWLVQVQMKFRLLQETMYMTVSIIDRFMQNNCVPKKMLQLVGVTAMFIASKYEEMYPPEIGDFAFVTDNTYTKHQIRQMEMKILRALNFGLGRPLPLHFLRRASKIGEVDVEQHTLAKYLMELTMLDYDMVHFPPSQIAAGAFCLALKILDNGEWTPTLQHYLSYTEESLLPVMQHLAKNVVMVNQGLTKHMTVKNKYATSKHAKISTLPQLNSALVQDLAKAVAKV
smiles,measurement,setting,value
CC(C)n1cc(C(=O)Nc2ccc(Oc3ccnc(NC(=O)C4CC4)c3)c(F)c2)c(=O)n(-c2ccc(F)cc2)c1=O,Tmax,[1],1.67 h
same,pIC50,[2],< 6.00
same,pIC50,BaF3 [3],> 11.30
same,pIC50,[4],< 6.00
same,inhibition,NCI-H1299 [5],Active
same,Activity,SNU-449,inactive
same,pIC50,NCI-H1299 [6],< 5.00
same,pIC50,CDK12/Cyclin K,< 6.00
same,clearance,[7],2.29 mL/min/kg
same,inhibition in vivo at 1 mg/kg,BaF3 [8],90.9%
same,Activity,[9],Non-Toxic
same,pIC50,[10],< 6.00
same,pIC50,HCC78,< 5.00
same,AUC(0-t) at 24 h,[11],24000 ng·h/mL
same,inhibition,[12],Dose-Dependent Effect
same,pIC50,[13],9.00
same,pIC50,[14],< 6.00
same,inhibition,[15],Dose-Dependent Effect
same,pIC50,EBC-1,7.19
same,pIC50,[16],< 6.00
same,pIC50,[17],< 6.00
same,pIC50,MKN-45,6.97
same,pIC50,Ephrin type-A receptor 2,< 7.00
same,pIC50,[18],9.10
same,pIC50,MM1.S,< 5.00
same,half-life,[19],5.2 h
same,pIC50,[20],< 6.00
same,inhibition,[21],Dose-Dependent Effect
same,inhibition in vivo at 100 mg/kg,U-87 MG,99.1%
same,half-life,[22],13.8 h
same,pIC50,[23],< 6.00
same,pIC50,HCC827,< 5.00
same,pIC50,NCI-H1975,< 5.00
